The values below come from patent US20240309012A1, “ISOQUINOLINE COMPOUND, MANUFACTURING METHOD THEREFOR, AND APPLICATION THEREOF” (priority 2020, published 2024).

Series [1] has as its system 2019 novel coronavirus (SARS-CoV-2). Nature of the series: Inhibition of 2019 novel coronavirus (SARS-CoV-2) replication in Vero E6 cells, virus copy number by qRT-PCR. It counts as cell-based. Background: In qPCR the cycle at which signal appears reflects the starting amount.
Series [2] is described as follows: Cytotoxicity test on Vero E6 cells by CCK8 kit. It counts as cell-based. The conditions noted are these: African green monkey. On the procedure: (§1) In this example, the median toxic concentration (CC50) of each example on Vero E6 cells was analysed and determined by CCK8 kit.
Series [3] has as its system Vero E6 cells. The series is described as follows: Cytotoxicity test on Vero E6 cells by CCK8 kit. Type of series: cell-based. On the procedure: as §1
On the technique in general: Tetrazolium dyes change colour on reduction, which living cells bring about.

For series [4], the system named is SARS-CoV-2. The conditions noted are these: existing literature; cited from earlier work.
Where [5] appears, read: Severe acute respiratory syndrome coronavirus 2, Vero C1008, Vero E6 cells, MOI 0.01, 24 h p.i., qRT-PCR of supernatant.
Setting [6] is: Severe acute respiratory syndrome coronavirus 2, Vero C1008, 24 h.

Read-outs that look alike come from different tables or passages of the source. Where only a bound is given, the exact number is not on record here.

Usually EC50 stands for the concentration at which the effect is half-maximal. As usually defined, the CC50 is the concentration at which the toxic effect on the cells reaches its halfway point. In the case of `COc1cc2c3cc1Oc1c(OC)c(OC)cc4c1[C@@H](Cc1ccc(C#N)c(c1)Oc1ccc(cc1)C[C@@H]3N(C)CC2)N(C)CC4` [Compound 1], it took 700 nM to reach a half-maximal effect in series [1] (setting [5]) (EC50). For the same molecule, the CC50 in series [2] was determined as 25.6 µM.
The molecule `COc1cc2c3cc1Oc1c(OC)c(OC)cc4c1[C@@H](Cc1ccc(C=O)c(c1)Oc1ccc(cc1)C[C@@H]3N(C)CC2)N(C)CC4` [Compound 2] displayed an EC50 in series [1] (setting [5]) of 1190 nM. The CC50 in series [2] came to 102 µM.
Turning to `COc1cc2c3cc1Oc1c(OC)c(OC)cc4c1[C@@H](Cc1ccc(CO)c(c1)Oc1ccc(cc1)C[C@@H]3N(C)CC2)N(C)CC4` [Compound 3], the EC50 in series [1] (setting [5]) was determined as 1120 nM. The CC50 in series [2] turned out to be 70.5 µM.
Turning to `CCCCNC(=O)Oc1ccc2cc1Oc1ccc(cc1)C[C@H]1c3cc(c(OC)cc3CCN1C)Oc1c(OC)c(OC)cc3c1[C@@H](C2)N(C)CC3` [Compound 4], the EC50 in series [1] (setting [6]) came to 940 nM. This molecule also gave a CC50 in series [2] of 31.5 µM.
`COc1cc2c3cc1Oc1c(OC)c(OC)cc4c1[C@@H](Cc1ccc(OC(=O)CCCC[C@H]5CCSS5)c(c1)Oc1ccc(cc1)C[C@@H]3N(C)CC2)N(C)CC4` [Compound 5] came in with an EC50 in series [1] (setting [5]) of 1500 nM. This molecule displayed a CC50 in series [2] of 172 µM.
On the same counts, the results for `COC(=O)c1ccc2cc1Oc1ccc(cc1)C[C@H]1c3cc(c(OC)cc3CCN1C)Oc1c(OC)c(OC)cc3c1[C@@H](C2)N(C)CC3` [Compound 8] are 360 nM and 31.4 µM.
The matching figures for `COc1cc2c3cc1Oc1c(OC)c(OC)cc4c1[C@@H](Cc1ccc(C(N)=O)c(c1)Oc1ccc(cc1)C[C@@H]3N(C)CC2)N(C)CC4` [Compound 9]: 550 nM and 63.2 µM.
On the same counts, the results for `COc1cc2c3cc1Oc1c(OC)c(OC)cc4c1[C@@H](Cc1cc(c5oc(=O)[nH]c5c1)Oc1ccc(cc1)C[C@@H]3N(C)CC2)N(C)CC4` [Compound 18] are 900 nM and 14.7 µM.
Regarding `COc1cc2c3cc1Oc1c(OC)c(OC)cc4c1[C@@H](Cc1ccc(C(C)=O)c(c1)Oc1ccc(cc1)C[C@@H]3N(C)CC2)N(C)CC4` [Compound 25], the EC50 in series [1] (setting [5]) was < 2000 nM. Further, the CC50 in series [2] worked out at 29.4 µM.
The matching figures for `COc1cc2c3cc1Oc1c(OC)c(OC)cc4c1[C@@H](Cc1ccc(C(=O)NC5CCCC5)c(c1)Oc1ccc(cc1)C[C@@H]3N(C)CC2)N(C)CC4` [Compound 28]: 2400 nM and 22.5 µM.
On the same counts, the results for `COc1cc2c3cc1Oc1c(OC)c(OC)cc4c1[C@@H](Cc1cc(cc([N+](=O)[O-])c1)Oc1ccc(cc1)C[C@@H]3N(C)CC2)N(C)CC4` [Compound 33] are 630 nM and 24.3 µM.
For `COc1cc2c3cc1Oc1c(OC)c(OC)cc4c1[C@@H](Cc1cccc(c1)Oc1ccc(cc1)C[C@@H]3N(C)CC2)N(C)CC4` [Compound 39], the EC50 in series [1] (setting [5]) was 930 nM. In series [2], this molecule returned a CC50 of 17.1 µM.
In the case of `C=C(C)c1ccc2cc1Oc1ccc(cc1)C[C@H]1c3cc(c(OC)cc3CCN1C)Oc1c(OC)c(OC)cc3c1[C@@H](C2)N(C)CC3` [Compound 40], in series [1] (setting [5]), a half-maximal effect (EC50) was put at 950 nM. Besides, the midpoint of cytotoxicity in series [2], the CC50, lay at 11.7 µM.
On the same counts, the results for `COc1cc2c3cc1Oc1c(OC)c(OC)cc4c1[C@@H](Cc1ccc(C)c(c1)Oc1ccc(cc1)C[C@@H]3N(C)CC2)N(C)CC4` [Compound 41] are 2450 nM and 10.2 µM.
As for `C=CC(=O)Nc1ccc2cc1Oc1ccc(cc1)C[C@H]1c3cc(c(OC)cc3CCN1C)Oc1c(OC)c(OC)cc3c1[C@@H](C2)N(C)CC3` [Compound 42], the EC50 in series [1] (setting [5]) is < 2000 nM. For the same molecule, the CC50 in series [2] was 31.1 µM.
For the molecule `CCCCCNC(=O)c1ccc2cc1Oc1ccc(cc1)C[C@H]1c3cc(c(OC)cc3CCN1C)Oc1c(OC)c(OC)cc3c1[C@@H](C2)N(C)CC3` [Compound 43], the response in series [1] (setting [5]) was half-maximal at 2090 nM (EC50). In series [2], the midpoint of cytotoxicity, the CC50, lay at 10.4 µM.
The matching figures for `COc1cc2c3cc1Oc1c(OC)c(OC)cc4c1[C@@H](Cc1ccc(C5CC5)c(c1)Oc1ccc(cc1)C[C@@H]3N(C)CC2)N(C)CC4` [Compound 44]: 2250 nM and 10.8 µM.
For the molecule `COc1cc2c3cc1Oc1c(OC)c(OC)cc4c1[C@@H](Cc1ccc(C(C)O)c(c1)Oc1ccc(cc1)C[C@@H]3N(C)CC2)N(C)CC4` (stereo partly drawn) [Compound 46], the EC50 in series [1] (setting [5]) came to 1020 nM. Half-maximal cytotoxicity in series [2] (CC50) was put at 29.7 µM.
For the molecule `COc1cc2c3cc1Oc1c(OC)c(OC)cc4c1[C@@H](Cc1ccc(C(=O)N5CCCCC5)c(c1)Oc1ccc(cc1)C[C@@H]3N(C)CC2)N(C)CC4` [Compound 47], in series [1] (setting [5]), the EC50 is < 2000 nM. In series [2], this molecule returned a CC50 of 24.6 µM.
Consider `COc1cc2c3cc1Oc1c(OC)c(OC)cc4c1[C@@H](Cc1ccc(C(=O)NC5CC5)c(c1)Oc1ccc(cc1)C[C@@H]3N(C)CC2)N(C)CC4` [Compound 49], for which the EC50 in series [1] (setting [5]) is < 2000 nM. This molecule returned a CC50 in series [2] of 62.3 µM.
The matching figures for `COc1cc2c3cc1Oc1c(OC)c(OC)cc4c1[C@@H](Cc1ccc(C(=O)Nc5ccccc5)c(c1)Oc1ccc(cc1)C[C@@H]3N(C)CC2)N(C)CC4` [Compound 51]: < 2000 nM and 10.2 µM.
For `CCCCNC(=O)Oc1c(OC)cc2c3c1Oc1cc4c(cc1OC)CCN(C)[C@H]4Cc1ccc(cc1)Oc1cc(ccc1OC)C[C@H]3N(C)CC2` [Compound 53], the EC50 in series [1] (setting [6]) is < 2000 nM. The same molecule gave a CC50 in series [2] of 22.2 µM.
Turning to `COc1cc2c3cc1Oc1c(OC)c(OC)cc4c1[C@@H](Cc1ccc(C(=O)Nc5ccc(C(F)(F)F)cc5)c(c1)Oc1ccc(cc1)C[C@@H]3N(C)CC2)N(C)CC4` [Compound 54], in series [1] (setting [5]), the EC50 was < 2000 nM. This molecule also returned a CC50 in series [2] of 10.5 µM.
`COc1cc2c3cc1Oc1c(OC)c(OC)cc4c1[C@@H](Cc1ccc(C(=O)NC(C)C)c(c1)Oc1ccc(cc1)C[C@@H]3N(C)CC2)N(C)CC4` [Compound 55]: in series [1] (setting [5]), the EC50 was < 2000 nM. In series [2], this molecule returned a CC50 of 32 µM.
In the case of `COc1cc2c3cc1Oc1c(OC)c(OC)cc4c1[C@@H](Cc1ccc(C(=O)NC5CCC5)c(c1)Oc1ccc(cc1)C[C@@H]3N(C)CC2)N(C)CC4` [Compound 57], the EC50 in series [1] (setting [5]) was < 2000 nM. In series [2], this molecule returned a CC50 of 33.9 µM.
Regarding `COc1cc2c3cc1Oc1c(OC)c(OC)cc4c1[C@@H](Cc1ccc(C(=O)Nc5cccnc5)c(c1)Oc1ccc(cc1)C[C@@H]3N(C)CC2)N(C)CC4` [Compound 58], in series [1] (setting [5]), the EC50 was < 2000 nM. Further, the CC50 in series [2] is 26.4 µM.
As to `COc1ccc(NC(=O)c2ccc3cc2Oc2ccc(cc2)C[C@H]2c4cc(c(OC)cc4CCN2C)Oc2c(OC)c(OC)cc4c2[C@@H](C3)N(C)CC4)cc1` [Compound 59], the EC50 in series [1] (setting [5]) was < 2000 nM. In series [2], the CC50 was found to be 10.6 µM.
The matching figures for `COc1cc2c3cc1Oc1c(OC)c(OC)cc4c1[C@@H](Cc1ccc(C(=O)C5CC5)c(c1)Oc1ccc(cc1)C[C@@H]3N(C)CC2)N(C)CC4` [Compound 61]: < 2000 nM and 13.7 µM.
The matching figures for `COc1cc2c3cc1Oc1c(OC)c(OC)cc4c1[C@@H](Cc1ccc(C(=O)NCCOCCO)c(c1)Oc1ccc(cc1)C[C@@H]3N(C)CC2)N(C)CC4` [Compound 62]: < 2000 nM and 123 µM.
Take `COc1cc2c3cc1Oc1c(OC)c(OC)cc4c1[C@@H](Cc1ccc(C(=O)OCCOCCO)c(c1)Oc1ccc(cc1)C[C@@H]3N(C)CC2)N(C)CC4` [Compound 65]: the EC50 in series [1] (setting [5]) was < 2000 nM. Further, it took 58.4 µM to reach half-maximal cytotoxicity in series [2] (CC50).
On to “Berbamine hydrochloride [reference compound]”, for which the response in series [1] was half-maximal at 14500 nM (EC50). The molecule also had a CC50 in series [3] of 29.9 µM. For the same molecule, the “Anti-novel coronavirus effect (in words)” value in series [4] is given as “not strong”.
